Consider one compound from paper PMC5939068 (Proceedings of the National Academy of Sciences of the …, 2018).

This test has as its target 52SFK (HAdV-52 short fiber knob) (human adenovirus 52, UniProt A0MK70). Briefly: SPR with immobilized knob. The class given is binding. As to conditions: oligoSia in solution.

With `CC(=O)N[C@H]1[C@H]([C@H](O)[C@H](O)CO)O[C@@](O[C@H](CO)[C@@H](O)[C@@H]2OC(O)(C(=O)O)C[C@H](O)[C@H]2NC(C)=O)(C(=O)O)C[C@@H]1O` (stereo partly shown) [DP2, disialic acid], the “SPR with immobilized knob” value is “the biggest increase in affinity was shown between DP2 and DP3”.
